# Results: patent US9532519B2, “Plant growth regulator and use thereof” (Japan Science and Technology Agency, priority 2006, dated 2017)
# Tests used:
# [1] = system: Rose (breed; English rose); test: Influence of oxidized glutathione on growth of rose (English rose); assay type: in vivo; details: 50 mL of 0.5 mM-GSSG two times a week for four months, then pruned
# Method: Rose (breed; English rose) was fertilized with 50 mL of a 0.5 mM-GSSG solution two times a week for four months and then pruned completely and cultivated.
# [2] = system: Sweet corn (Canberra 90, TAKII & CO., LTD.); test: Effect 1 of oxidized glutathione on productivity of corn; assay type: in vivo; details: 200 mL of 0.5 mM-GSSG two times a week for 12 weeks at root
# Method: Sweet corn (Canberra 90, TAKII & CO., LTD.) was sown, and then transferred to a hydroponics pot ( 1/2000 are) filled with a culture soil (6 L of vermiculite as the lower layer, 3 L of The Kureha Ikubyou Baido soil as the middle layer, and 3 L of vermiculite as the upper layer) two weeks later and additionally fertilized with 3 g of KUMIAI RIN […] S604 four weeks later and six weeks later. Further, the GSSG-treated plant was given 200 mL of 0.5 mM-GSSG two times a week for 12 weeks after germination at its root.
# [3] = system: transformants of Arabidopsis to which a gene encoding gFBA was introduced and the wild-type Arabidopsis (Columbia; Col); details: in vivo
# Arabidopsis [4] = test: Influence 2 of treatment condition on seeds of Arabidopsis (start time of 1 mM-GSSG); assay type: in vivo; details: regardless of the time of treating
# Method: Seeds of Arabidopsis were sown in pods filled with soil immersed in water. The pods were transferred to trays with water containing 1 mM-GSSG 2 days after, 1 week after, 2 weeks after, 3 weeks after, 4 weeks after, 5 weeks after, 6 weeks after, or 7 weeks after the sowing.
# Arabidopsis was cultivated under the same conditions as those described in <1. Influence of oxidized glutathione on growth of Arabidopsis> except for the above condition.
# The seed weight per one pod, obtained from Arabidopsis thus cultivated (three plants in each pod), was measured.
# [5] = system: Rose saplings (breed; Purple rose); test: Effect 1 on promoting growth of sprout and floral bud of rose (Purple rose); assay type: in vivo; details: 50 mL of 0.5 mM-GSSG two times a week; one month from the fertilization
# Method: Rose saplings (breed; Purple rose) were purchased at a hardware store and cultivated in pods for rice hydroponics. The rose saplings were fertilized with 50 mL of a 0.5 mM-GSSG solution in the form of a liquid fertilizer two times a week.
# Arabidopsis seeds = test: Germination rate (ripeness) of seeds from Arabidopsis cultivated with oxidized glutathione; assay type: in vivo
# Text: Ripeness of seeds obtained from Arabidopsis cultivated with oxidized glutathione was examined.
# rice (Akita 63) = test: Rice hydroponics, GSSG in additional fertilization, number of ears; assay type: in vivo; details: GSSG 0.2 gN per test location (0.1 m2) in additional fertilization
# Text: In particular, the method is effective for a plant such as gramineae whose yield is greatly dependent on tillers.
# Sweet corn = test: Effect of oxidized glutathione on productivity of corn under nitrogen-deficient condition; assay type: in vivo; details: nitrogen-deficient then 30 kgN/10a; 0.2, 0.5, 1.0 mM GSSG, 50 mL two times a week from 8 weeks after sowing
# Method: Sweet corn was sown and cultivated for […] (7 weeks) after the sowing without supplying a nitrogen source to the sweet corn. Thereafter, the sweet corn was cultivated with 30 kgN/10a of a nitrogen source. […] See the cultivation conditions in (c) of FIG. 33.
# In order to examine the amount of production of the plants in more detail, the amounts of biomass of fruits, ground parts, and portions other than the fruits were measured, and harvest index was calculated.
# Arabidopsis [6] = test: Effect of concentration of oxidized glutathione on growth of Arabidopsis; assay type: in vivo
# Method: Specifically, soil filled in a pod of approximately 65 in width, 65 in depth, and 50 in height was immersed in 0 mM-, 0.01 mM-, 0.2 mM-, 1 mM-, 2 mM-, and 5 mM-GSSG solutions. Seeds of Arabidopsis were sown in such a manner that approximately three seeds existed in each pod, and the seeds were observed chronologically 3 weeks after the sowing.
# [7] = system: Arabidopsis GA synthesis mutants ga20ox1; test: Effect of oxidized glutathione on gibberellin synthesis mutant; assay type: in vivo; details: GSSG (1 mM) from sowing
# Text: In the drawing, “Col” indicates a wild-type Columbia, and “ga20ox1” indicates a mutant in which T-DNA is inserted into a GA20 oxidase gene that codes an enzyme of a GA biosynthesis. “ga20ox1-1” and “ga20ox1-2” are independent mutants in which T-DNA are inserted into different portions.
# Tsai-hsin = test: Influence of oxidized glutathione on growth of tsai-hsin, agricultural field; assay type: in vivo; details: 0.5 mM- or 5 mM-GSSG sprayed to leaves two times a week, 1 L per zone (3 m^2)
# Text: Tsai-hsin was cultivated for two weeks, and then transferred to an agricultural field and grown with or without the treatment with GSSG. Tsai-hsin was fertilized with a nitrogen fertilizer that was KUMIAI RIN […] S604 in a ratio of 20 kgN per 10 are, and was additionally fertilized with 5 kgN 3 weeks later.
# Arabidopsis [8] = test: Influence of oxidized glutathione on growth of Arabidopsis; assay type: in vivo; details: in vivo
# Method: Specifically, the plants were cultivated with two or three plants in one pod of approximately 65 in width, 65 in depth, and 50 in height, and an appropriate amount of a treatment solution was supplied. The effect of the treatment was evaluated with respect to the number of rosette leaves, the speed of a growing flower stalk, the number of flowers, and the number of seeds.
# [9] = soil immersed in 0-5 mM GSSG solutions
substance,measurement,setting,value
oxidized glutathione [GSSG],germination and growth of new buds vs not treated,[1],significantly earlier germination and significant promotion of growth of new buds
same,amount of biomass of the portions other than the fruits vs not treated,[2],no great difference
same,amounts of biomass of the fruits and ground parts,[2],significantly high
same,formation of floral buds vs not treated,[2],promotion of formation of floral buds
same,harvest index vs not treated,[2],significantly high harvest index
same,number of edible seeds vs not treated,[2],more number of edible seeds
same,size of fruits vs not treated,[2],larger
same,size of seeds vs not treated,[2],larger
same,"harvest index, whole amount of biomass and seed weight",[3],"increased any of the harvest index, the whole amount of biomass, and the seed weight"
same,seed weight per one pod vs no treatment,Arabidopsis [4],more seed weight
same,growth of sprout vs not treated,[5],promoted growth of sprout
same,germination rate,Arabidopsis seeds; 2 days after the sowing,significantly high
same,"germination rate, difference from seeds of plants cultivated normally",Arabidopsis seeds; 7 days after the sowing,almost no difference
same,germination speed of seeds of treated plants vs plants cultivated normally,Arabidopsis seeds; seeds sown in 1/2 MS culture media,germinated faster
same,number of ears relative to plant cultivated with only water,rice (Akita 63),approximately 1.4 times
same,amount of fruits vs not treated,Sweet corn,larger amount of fruits
same,"amounts of biomass of fruits, ground parts, portions other than the fruits, and harvest index vs not treated",Sweet corn,"larger amounts of biomass of fruits, ground parts, and portions other than the fruits and harvest index"
same,difference from Arabidopsis cultivated with water (0 mM),Arabidopsis [6]; 0.01 mM GSSG,almost no difference
same,concentration at which making a leaf rounder and lengthening the life of a plant were clearly observed,Arabidopsis [6]; [9],0.2 to 2 mM
same,concentration at which making a stem thicker was observed,Arabidopsis [6]; [9],1 to 2 mM
same,seed weight,[7],significantly increased
same,number of flowers (sheaths),[7]; 8 weeks after the sowing,also increased
same,number of lateral shoots vs water,[7]; 8 weeks after the sowing,significantly increased
same,amount of growth vs normal nitrogen management zone,Tsai-hsin,significant increase in the amount of growth
same,effective number of seeds per plant relative to plants cultivated with only water or 5 mM H2O2,Arabidopsis [8],approximately three or four times as large
same,growth of leaves (size and shape),Arabidopsis [8],grew larger and rounder
same,number of flowers and area of leaves,Arabidopsis [8],greatly larger
same,"plant length, stem and leaves",Arabidopsis [8],"shorter plant length, a thicker stem, and larger leaves"
same,state of plant (life of plant),Arabidopsis [8],showed much amount of green leaves
